For eleven molecules, GI50 and TGI results are on record in PubChem BioAssay (NCI).

Values joined by “and” are separate entries in the source; they are usually repeats but may differ in a detail not shown here. Equal values may be shown once.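 Following 48 hours of exposure in 96-well plates, responses at five concentrations were used to interpolate endpoints linearly. GI50: concentration for 50% inhibition of growth. Definition used: TGI = concentration required for complete inhibition of growth.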

Some test systems named below: U251 CNS; NCI/ADR-RES ovarian; SK-MEL-2 melanoma; CAKI-1 renal; BT-549 breast; SNB-75 CNS; OVCAR-3 ovarian; M14 melanoma; DMS 114 small cell lung; HOP-18 NSCLC.
Common to all, as to experiment: NCI tumour cell line growth inhibition, 48 h

As for `O=C1c2ccccc2C(=O)c2c(NCCNCCO)ccc(NCCNCCO)c21`, the GI50 in the experiment with U251 CNS was 373 nM and 442 nM and 285 nM; in the experiment with NCI/ADR-RES ovarian, 42.8 µM and 99.2 µM and > 100 µM; in the experiment with SK-MEL-2 melanoma, 2220 nM and 2700 nM and 2090 nM; in the experiment with CAKI-1 renal it was 2310 nM and 2420 nM and 4940 nM; in the experiment on BT-549 breast, 2.98 µM and 7.28 µM and 6.25 µM; in the experiment on SNB-75 CNS, 649 nM and 473 nM and 386 nM. Besides, the GI50 with OVCAR-3 ovarian was 2410 nM and 2860 nM and 2720 nM; in the experiment on M14 melanoma, 1900 nM and 2640 nM and 1700 nM. In addition, the TGI in the experiment on U251 CNS was 5.18 µM and 6.64 µM and 2.96 µM; in the experiment with NCI/ADR-RES ovarian it was more than 100 µM; in the experiment with SK-MEL-2 melanoma, 5.79 µM and 16.7 µM and 3.77 µM; with CAKI-1 renal, 45.2 µM and > 45.9 µM and > 100 µM; in the experiment on BT-549 breast, 14.9 µM and 20.7 µM and 21.7 µM; with SNB-75 CNS, 3.43 µM and 2.52 µM and 2.46 µM. In addition, the TGI is 7.71 µM and 11.5 µM and 11 µM in the experiment with OVCAR-3 ovarian; 8.52 µM and 13.6 µM and 11.6 µM in the experiment on M14 melanoma.

For `C=C(CS(=O)(=O)c1ccccc1)C(=O)OCC`, the TGI worked out at 30.7 µM in the experiment on U251 CNS; 35 µM in the experiment on SK-MEL-2 melanoma; 33.9 µM in the experiment on CAKI-1 renal; 32 µM with SNB-75 CNS; 26.5 µM in the experiment with OVCAR-3 ovarian; 25.7 µM in the experiment on DMS 114 small cell lung. Besides, the TGI in the experiment with M14 melanoma came to 24.2 µM.

`Cc1ccn2c(-c3csc(Nc4cccc(O)c4)n3)c(C)nc2c1`: the GI50 is 681 nM in the experiment on U251 CNS; 0.957 µM in the experiment with NCI/ADR-RES ovarian; 720 nM in the experiment on SK-MEL-2 melanoma; 1210 nM in the experiment on CAKI-1 renal; 0.781 µM in the experiment on BT-549 breast; 225 nM in the experiment with SNB-75 CNS. Moreover, the figures for the GI50 with OVCAR-3 ovarian and with M14 melanoma were 320 nM and 359 nM, respectively. In addition, the TGI with U251 CNS is 10.3 µM; in the experiment on NCI/ADR-RES ovarian, more than 45.1 µM; in the experiment on SK-MEL-2 melanoma, 20.4 µM; with CAKI-1 renal it was 21.2 µM; with BT-549 breast it was 33.6 µM; in the experiment on SNB-75 CNS, 1.65 µM. Further, the TGI worked out at 0.914 µM in the experiment on OVCAR-3 ovarian and 18 µM with M14 melanoma.

Consider `O=C(NCCSSCCNC(=O)/C(Cc1ccc(O)c(Br)c1)=N/O)/C(Cc1ccc(O)c(Br)c1)=N/O`, for which the TGI in the experiment on U251 CNS is 4.53 µM; in the experiment with NCI/ADR-RES ovarian it was 7.97 µM; in the experiment on SK-MEL-2 melanoma it was 3.26 µM; in the experiment with CAKI-1 renal, 5.32 µM; with BT-549 breast it was 15 µM; in the experiment with SNB-75 CNS, more than 13.6 µM. The TGI in the experiment on OVCAR-3 ovarian was determined as 6.06 µM; with M14 melanoma, 7.22 µM.

For the molecule `O=C1c2ccccc2-c2c1c1c(O)cccc1n2CCCc1ccccc1`, the GI50 is 26400 nM with U251 CNS; 4.47 µM in the experiment with NCI/ADR-RES ovarian; 18500 nM in the experiment on SK-MEL-2 melanoma; 24900 nM with CAKI-1 renal; 16 µM in the experiment on BT-549 breast; 51700 nM in the experiment with SNB-75 CNS. The values for the GI50 with OVCAR-3 ovarian and in the experiment on M14 melanoma were 9820 nM and more than 100000 nM, respectively. Also, the TGI with U251 CNS is more than 100 µM; with NCI/ADR-RES ovarian, 51.1 µM; in the experiment on SK-MEL-2 melanoma it was 87.3 µM; in the experiment on CAKI-1 renal it was more than 100 µM; in the experiment with BT-549 breast it was 63.6 µM; in the experiment with SNB-75 CNS, more than 100 µM. Further, the TGI with OVCAR-3 ovarian and in the experiment with M14 melanoma was more than 100 µM each time.

Consider `CC[C@@]1(OC(=O)C(N)CCC(=O)O)C(=O)OCc2c1cc1n(c2=O)Cc2cc3ccccc3nc2-1` (stereo not given in full), for which the TGI in the experiment with U251 CNS is 1.98 µM; in the experiment with NCI/ADR-RES ovarian, 0.297 µM; in the experiment on SK-MEL-2 melanoma, 3.44 µM; in the experiment with CAKI-1 renal, 0.235 µM; in the experiment with BT-549 breast, more than 100 µM; in the experiment with SNB-75 CNS, 1.35 µM. Also, the TGI amounted to 2.07 µM in the experiment with OVCAR-3 ovarian, 4.42 µM in the experiment with DMS 114 small cell lung and 1.2 µM in the experiment on M14 melanoma.

Take `Oc1[nH]c2ccc(Cl)cc2c1/C=c1/ccc2c(c1)N=C(c1ccc(C(F)(F)F)cc1)N=2`: the GI50 was 1740 nM with U251 CNS; 2.6 µM in the experiment on NCI/ADR-RES ovarian; 1970 nM with SK-MEL-2 melanoma; 2740 nM in the experiment on CAKI-1 renal; 1.87 µM with BT-549 breast; 2030 nM in the experiment with SNB-75 CNS. Further, the values for the GI50 in the experiment with OVCAR-3 ovarian and in the experiment with M14 melanoma were 1560 nM and 1670 nM, respectively. Moreover, the TGI with U251 CNS was 3.47 µM; in the experiment on NCI/ADR-RES ovarian, 7.77 µM; in the experiment on SK-MEL-2 melanoma, 3.79 µM; in the experiment with CAKI-1 renal, 9.55 µM; in the experiment with BT-549 breast, 4.75 µM; in the experiment on SNB-75 CNS, 7.51 µM. Moreover, the TGI came to 3.21 µM in the experiment on OVCAR-3 ovarian and 3.34 µM with M14 melanoma.

Regarding `O=S1CCN(Cc2ccc(-c3ccc4ncnc(Nc5ccc(OCc6ccccc6)c(F)c5)c4c3)o2)CC1`, the GI50 in the experiment on U251 CNS is 13900 nM; with NCI/ADR-RES ovarian it was 7.36 µM; in the experiment with SK-MEL-2 melanoma it was 5460 nM; in the experiment with CAKI-1 renal it was 394 nM; in the experiment with BT-549 breast, 7.88 µM; in the experiment with SNB-75 CNS, more than 13100 nM. The figures for the GI50 with OVCAR-3 ovarian and in the experiment on M14 melanoma were 7930 nM and 6260 nM, respectively. Further, the TGI with U251 CNS was more than 25 µM; in the experiment with NCI/ADR-RES ovarian, more than 25 µM; in the experiment with SK-MEL-2 melanoma it was 12.2 µM; in the experiment with CAKI-1 renal, more than 25 µM; in the experiment with BT-549 breast it was more than 22.8 µM; in the experiment on SNB-75 CNS, more than 25 µM. Moreover, the TGI was more than 25 µM in the experiment with OVCAR-3 ovarian and more than 21.6 µM in the experiment with M14 melanoma.

On to `CC(=O)NC1CCCN(O)C(=O)/C=C(/C)CCOC(=O)C(NC(C)=O)CCCN(O)C(=O)/C=C(/C)CCOC(=O)C(NC(C)=O)CCCN(O)C(=O)/C=C(/C)CCOC1=O.[Fe]` (stereo not given), for which the GI50 in the experiment on U251 CNS was more than 100000 nM; in the experiment with NCI/ADR-RES ovarian, more than 100 µM; in the experiment on SK-MEL-2 melanoma it was more than 100000 nM; in the experiment with CAKI-1 renal, more than 100000 nM; with BT-549 breast, more than 100 µM; with SNB-75 CNS, more than 100000 nM. The GI50 in the experiment on OVCAR-3 ovarian and in the experiment on M14 melanoma was more than 100000 nM each time. For the same molecule, the TGI with U251 CNS, with NCI/ADR-RES ovarian, in the experiment on SK-MEL-2 melanoma, in the experiment with CAKI-1 renal, with BT-549 breast and with SNB-75 CNS was more than 100 µM throughout. Also, the TGI in the experiment on OVCAR-3 ovarian and in the experiment with M14 melanoma was more than 100 µM each time.

In the case of `O=NNc1ccc(Sc2ccc3ccccc3c2)cn1`, the TGI in the experiment with U251 CNS was more than 100 µM; in the experiment with NCI/ADR-RES ovarian, 89.4 µM; with SK-MEL-2 melanoma, 43.4 µM; in the experiment on CAKI-1 renal, more than 100 µM; in the experiment with BT-549 breast, 77.1 µM; with SNB-75 CNS it was more than 100 µM. For the same molecule, the TGI was more than 100 µM with OVCAR-3 ovarian and 60.2 µM with M14 melanoma.

On to `CCOc1ccc(/C=N\N2C(=O)c3ccccc3C2=O)cc1`, for which the TGI with SK-MEL-2 melanoma, in the experiment on CAKI-1 renal, in the experiment on SNB-75 CNS, in the experiment with OVCAR-3 ovarian, with DMS 114 small cell lung and with HOP-18 NSCLC was more than 100 µM throughout. In the experiment on M14 melanoma, this molecule came in with a TGI of more than 100 µM.
